Source: patent US11072612B2, “NLRP3 modulators” (INNATE TUMOR IMMUNITY, INC., priority 2016, dated 2021)

Assays:
Format in all cases: cell-based
[1] = biological target: T1, TLR8 (Homo sapiens, UniProt Q9NR97); assay: TLR8 EC50 assay; settings: Table 2
T1 sequence (Q9NR97 27-1041): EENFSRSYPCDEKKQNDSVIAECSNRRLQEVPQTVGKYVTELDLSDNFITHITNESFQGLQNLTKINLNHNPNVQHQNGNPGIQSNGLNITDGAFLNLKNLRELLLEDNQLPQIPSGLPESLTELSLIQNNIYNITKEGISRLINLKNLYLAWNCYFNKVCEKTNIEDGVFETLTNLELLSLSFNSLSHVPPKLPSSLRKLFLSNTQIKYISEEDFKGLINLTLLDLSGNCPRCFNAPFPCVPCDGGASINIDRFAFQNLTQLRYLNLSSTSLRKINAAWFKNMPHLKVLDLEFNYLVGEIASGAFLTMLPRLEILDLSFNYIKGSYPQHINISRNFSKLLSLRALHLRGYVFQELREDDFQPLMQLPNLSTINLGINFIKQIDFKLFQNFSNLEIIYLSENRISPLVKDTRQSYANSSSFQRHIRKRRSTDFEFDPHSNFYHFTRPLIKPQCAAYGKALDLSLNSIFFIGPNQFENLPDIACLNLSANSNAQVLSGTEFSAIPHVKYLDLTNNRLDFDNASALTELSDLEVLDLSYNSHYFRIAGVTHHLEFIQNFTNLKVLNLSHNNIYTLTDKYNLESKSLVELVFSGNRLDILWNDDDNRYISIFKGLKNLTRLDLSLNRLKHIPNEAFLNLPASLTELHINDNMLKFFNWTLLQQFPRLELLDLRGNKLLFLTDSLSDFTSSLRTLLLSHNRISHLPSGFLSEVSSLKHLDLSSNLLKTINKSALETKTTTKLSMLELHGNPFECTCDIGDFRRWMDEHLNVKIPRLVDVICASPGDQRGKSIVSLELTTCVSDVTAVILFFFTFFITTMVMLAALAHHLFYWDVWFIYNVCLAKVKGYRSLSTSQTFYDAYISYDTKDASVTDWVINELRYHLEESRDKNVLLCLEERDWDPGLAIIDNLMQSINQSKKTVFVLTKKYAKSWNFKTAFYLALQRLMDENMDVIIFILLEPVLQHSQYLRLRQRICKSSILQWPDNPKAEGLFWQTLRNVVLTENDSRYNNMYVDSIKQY

[2] = biological target: T2, TLR7 (Homo sapiens, UniProt Q9NYK1); assay: TLR7 EC50 assay; settings: Table 2
T2 sequence (Q9NYK1 27-1049): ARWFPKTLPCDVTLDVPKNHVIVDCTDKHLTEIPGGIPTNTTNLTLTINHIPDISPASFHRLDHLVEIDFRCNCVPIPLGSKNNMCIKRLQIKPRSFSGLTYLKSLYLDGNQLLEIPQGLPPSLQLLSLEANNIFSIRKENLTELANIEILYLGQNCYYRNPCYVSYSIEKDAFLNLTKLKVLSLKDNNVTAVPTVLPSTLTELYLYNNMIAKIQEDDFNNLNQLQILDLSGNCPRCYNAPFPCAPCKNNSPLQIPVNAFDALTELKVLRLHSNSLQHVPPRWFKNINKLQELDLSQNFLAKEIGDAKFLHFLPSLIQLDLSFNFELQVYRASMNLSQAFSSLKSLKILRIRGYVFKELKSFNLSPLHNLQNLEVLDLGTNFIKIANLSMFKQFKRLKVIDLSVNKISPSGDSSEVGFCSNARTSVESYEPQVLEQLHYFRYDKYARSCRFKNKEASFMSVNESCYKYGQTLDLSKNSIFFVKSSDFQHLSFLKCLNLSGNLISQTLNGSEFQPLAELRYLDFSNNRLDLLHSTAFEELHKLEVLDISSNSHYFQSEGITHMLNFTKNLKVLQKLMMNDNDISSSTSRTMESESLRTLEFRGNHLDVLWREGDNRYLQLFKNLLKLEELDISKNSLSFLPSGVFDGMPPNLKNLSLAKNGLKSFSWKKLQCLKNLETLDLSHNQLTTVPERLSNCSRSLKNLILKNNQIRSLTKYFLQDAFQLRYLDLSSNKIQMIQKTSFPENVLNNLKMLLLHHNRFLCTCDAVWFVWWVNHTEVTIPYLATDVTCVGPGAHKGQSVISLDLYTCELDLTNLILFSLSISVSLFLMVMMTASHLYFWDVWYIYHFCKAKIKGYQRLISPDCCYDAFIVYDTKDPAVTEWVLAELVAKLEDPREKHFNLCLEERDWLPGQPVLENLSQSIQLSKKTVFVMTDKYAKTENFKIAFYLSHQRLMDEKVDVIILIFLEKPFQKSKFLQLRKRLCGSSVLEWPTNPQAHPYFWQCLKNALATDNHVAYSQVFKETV

[3] = biological target: T3, hNLRP3 (Homo sapiens, UniProt Q96P20); assay: hNLRP3 agonist assay: IL-1β production in PMA-differentiated THP-1 cells (ELISA); settings: Table 2, 4 hours, IL-1β by ELISA
T3 construct: THP-1 cells were purchased from the American Type Culture Collection; host or cells: THP-1 cells, PMA-differentiated
T3 sequence (Q96P20 whole entry): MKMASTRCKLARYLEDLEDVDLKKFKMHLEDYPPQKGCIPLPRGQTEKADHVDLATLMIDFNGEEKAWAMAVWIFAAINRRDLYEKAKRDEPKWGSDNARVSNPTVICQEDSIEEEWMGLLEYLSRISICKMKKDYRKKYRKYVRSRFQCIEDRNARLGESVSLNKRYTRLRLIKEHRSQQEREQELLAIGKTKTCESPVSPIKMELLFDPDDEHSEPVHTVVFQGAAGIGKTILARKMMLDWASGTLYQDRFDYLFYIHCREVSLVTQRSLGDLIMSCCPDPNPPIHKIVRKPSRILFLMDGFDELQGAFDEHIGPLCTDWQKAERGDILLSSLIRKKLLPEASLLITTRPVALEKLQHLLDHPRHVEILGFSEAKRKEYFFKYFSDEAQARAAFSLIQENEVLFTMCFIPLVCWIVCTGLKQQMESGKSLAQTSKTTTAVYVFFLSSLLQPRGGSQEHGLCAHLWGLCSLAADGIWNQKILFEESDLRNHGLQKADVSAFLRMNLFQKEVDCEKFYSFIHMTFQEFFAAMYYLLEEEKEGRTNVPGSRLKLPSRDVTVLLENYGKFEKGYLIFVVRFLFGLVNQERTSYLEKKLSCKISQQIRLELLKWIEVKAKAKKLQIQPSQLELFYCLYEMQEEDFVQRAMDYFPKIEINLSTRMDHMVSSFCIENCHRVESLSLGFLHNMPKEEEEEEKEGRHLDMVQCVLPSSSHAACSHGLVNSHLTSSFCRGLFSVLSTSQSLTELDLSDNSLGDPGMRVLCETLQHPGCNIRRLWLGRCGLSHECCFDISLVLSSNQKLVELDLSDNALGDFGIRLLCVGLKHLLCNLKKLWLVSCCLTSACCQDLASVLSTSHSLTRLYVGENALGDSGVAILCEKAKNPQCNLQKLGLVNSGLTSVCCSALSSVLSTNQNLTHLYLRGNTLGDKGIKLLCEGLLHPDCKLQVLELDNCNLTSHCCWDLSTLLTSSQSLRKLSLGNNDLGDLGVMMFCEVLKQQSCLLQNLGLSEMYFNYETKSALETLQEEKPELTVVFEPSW

| Structure (SMILES) | EC50 [1] [µM] | EC50 [2] [µM] | EC50 [3] [µM] |
| --- | --- | --- | --- |
| Cc1ccc(-c2ccc3c(c2)nc(N)c2nc(CCCO)[nH]c23)cn1 [Compound 172, 3-[4-amino-7-(6-methylpyridin-3-yl)-1H-imidazo[4,5-c]quinolin-2-yl]propan-1-ol] | > 100 | > 100 | > 100 |
| Cn1c(CCCO)nc2c(N)nc3ccccc3c21 [Compound 130] | > 100 | > 100 | 20 to 100 |
| Nc1nc2cc(C3CCCC3)ccc2c2[nH]c(CCCO)nc12 [Compound 161, 3-(4-amino-7-cyclopentyl-1H-imidazo[4,5-c]quinolin-2-yl)propan-1-ol] | > 100 | > 100 | ≤ 1 |
| Nc1nc2cc(-c3nccs3)ccc2c2[nH]c(CCCO)nc12 [Compound 184, 3-[4-amino-7-(1,3-thiazol-2-yl)-1H-imidazo[4,5-c]quinolin-2-yl]propan-1-ol] | > 100 | > 100 | > 100 |
| Nc1nc2cc(-c3cc[nH]n3)ccc2c2[nH]c(CCCO)nc12 [Compound 189, 3-[4-amino-7-(1H-pyrazol-3-yl)-1H-imidazo[4,5-c]quinolin-2-yl]propan-1-ol] | > 100 | > 100 | ≤ 1 |
| Cc1cccc(-c2ccc3c(c2)nc(N)c2nc(CCCO)[nH]c23)c1 [Compound 205, 3-[4-amino-7-(3-methylphenyl)-1H-imidazo[4,5-c]quinolin-2-yl]propan-1-ol] | > 100 | > 100 | 20 to 100 |
| CSc1ccc(-c2ccc3c(c2)nc(N)c2nc(CCCO)[nH]c23)cn1 [Compound 173, 3-[4-amino-7-(6-methylsulfanylpyridin-3-yl)-1H-imidazo[4,5-c]quinolin-2-yl]propan-1-ol] | > 100 | > 100 | > 100 |
| CC(C)(C)OC(=O)N1CCC(c2nc3c(N)nc4cc(-n5cccn5)ccc4c3[nH]2)CC1 [Compound 218] | > 100 | > 100 | ≤ 1 |
| CN1CCC(c2nc3c(N)nc4ccccc4c3[nH]2)CC1 [Compound 228] | > 100 | > 100 | 20 to 100 |
| Cn1c(CCCO)nc2c(N)nc3cc(-n4cccn4)ccc3c21 [Compound 108] | > 100 | > 100 | ≤ 1 |
| CCCn1cc(-c2ccc3c(c2)nc(N)c2nc(CCCOCc4ccccc4)[nH]c23)cn1 [Compound 152, 2-(3-phenylmethoxypropyl)-7-(1-propylpyrazol-4-yl)-1H-imidazo[4,5-c]quinolin-4-amine] | > 100 | > 100 | 20 to 100 |
| CN1CCC[C@@H](c2nc3c(N)nc4ccccc4c3[nH]2)C1 [Compound 139] | > 100 | > 100 | 20 to 100 |
| CCNC(C)c1nc2c(N)nc3cc(-c4cc[nH]n4)ccc3c2[nH]1 (stereo not drawn) [Compound 240] | > 100 | > 100 | 1 to 20 |
| Nc1nc2cc(-c3cc[nH]n3)ccc2c2[nH]c(CN3CC4COCC4C3)nc12 (stereo not drawn) [Compound 232] | > 100 | > 100 | 1 to 20 |
| Nc1nc2cc(-c3cnc4ccccc4c3)ccc2c2[nH]c(CCCO)nc12 [Compound 191, 3-(4-amino-7-quinolin-3-yl-1H-imidazo[4,5-c]quinolin-2-yl)propan-1-ol] | > 100 | > 100 | > 100 |
| CC(C(N)=O)c1ccc2c(c1)nc(N)c1nc(CCCO)[nH]c12 (stereo not drawn) [Compound 120] | > 100 | > 100 | 1 to 20 |
| Nc1nc2cc(Br)c(F)cc2c2[nH]c(CCCO)nc12 [Compound 118] | > 100 | > 100 | 1 to 20 |
| Nc1nc2cc(Br)ccc2c2[nH]c([C@H]3CC[C@H](O)CC3)nc12 [Compound 125] | > 100 | > 100 | 1 to 20 |
| CCN(C(=O)OC(C)(C)C)C(C)c1nc2c(N)nc3cc(-c4cc[nH]n4)ccc3c2n1Cc1ccc(OC)cc1 (stereo not drawn) [Compound 242] | > 100 | > 100 | 1 to 20 |
| Nc1nc2cc(-c3ccc[nH]c3=O)ccc2c2[nH]c(CCCOCc3ccccc3)nc12 [Compound 249] | > 100 | > 100 | 1 to 20 |

Next, values leading:

| EC50 [1] [µM] | EC50 [2] [µM] | EC50 [3] [µM] | Structure (SMILES) |
| --- | --- | --- | --- |
| > 100 | > 100 | 20 to 100 | Nc1nc2ccccc2c2[nH]c([C@H]3CC[C@@H](O)CC3)nc12 [Compound 134] |
| > 100 | > 100 | ≤ 1 | Cn1c(CCCO)nc2c(N)nc3cc(-c4cc[nH]n4)ccc3c21 [Compound 107] |
| > 100 | > 100 | ≤ 1 | CC(C)(C)OC(=O)N1CCC(c2nc3c(N)nc4cc(-c5ccccc5)ccc4c3[nH]2)CC1 [Compound 219] |
| > 100 | > 100 | ≤ 1 | Nc1nc2cc(-c3cccs3)ccc2c2[nH]c(CCCO)nc12 [Compound 187, 3-(4-amino-7-thiophen-2-yl-1H-imidazo[4,5-c]quinolin-2-yl)propan-1-ol] |
| > 100 | > 100 | > 100 | COc1ccc(-c2ccc3c(c2)nc(N)c2nc(CCCO)[nH]c23)cc1 [Compound 211, 3-[4-amino-7-(4-methoxyphenyl)-1H-imidazo[4,5-c]quinolin-2-yl]propan-1-ol] |
| > 100 | > 100 | 1 to 20 | Cc1cnn(-c2ccc3c(c2)nc(N)c2nc(CCCO)[nH]c23)c1 [Compound 181, 3-[4-amino-7-(4-methylpyrazol-1-yl)-1H-imidazo[4,5-c]quinolin-2-yl]propan-1-ol] |
| > 100 | > 100 | > 100 | COc1ccncc1-c1ccc2c(c1)nc(N)c1nc(CCCO)[nH]c12 [Compound 171, 3-[4-amino-7-(4-methoxypyridin-3-yl)-1H-imidazo[4,5-c]quinolin-2-yl]propan-1-ol] |
| > 100 | > 100 | 1 to 20 | CN(C)C(=O)CCCn1c(CCCO)nc2c(N)nc3cc(Br)ccc3c21 [Compound 169] |
| > 100 | > 100 | 20 to 100 | CC(=O)NCCCn1c(C2CCN(C(=O)c3ccccc3)CC2)nc2c(N)nc3cc(Br)ccc3c21 [Compound 227] |
| > 100 | > 100 | 1 to 20 | Nc1nc2cc(CC(=O)O)ccc2c2[nH]c(CCCO)nc12 [Compound 121] |
| 20 to 100 | 20 to 100 | > 100 | Nc1nc2cc(-c3cccnc3Cl)ccc2c2[nH]c(CCCO)nc12 [Compound 215, 3-[4-amino-7-(2-chloropyridin-3-yl)-1H-imidazo[4,5-c]quinolin-2-yl]propan-1-ol] |
| 20 to 100 | 20 to 100 | 20 to 100 | Nc1nc2cc(Cl)ccc2c2[nH]c(CCCO)nc12 [Compound 165, 3-(4-amino-7-chloro-1H-imidazo[4,5-c]quinolin-2-yl)propan-1-ol] |
